Experimental data reported in paper PMC10251674, “Synthesis of novel mono- and bis-pyrazolylthiazole derivatives as anti-liver cancer agents through EGFR/HER2 target inhibition” (BMC Chemistry, 2023).
Like-named read-outs stand apart in the source and are kept apart here.

Experiments:
[1] = system: HepG2 liver cancer cells; test: MTT cytotoxicity assay against HepG2 cells; assay type: cell-based; conditions: for IC50 / viability at 100 µM: Homo sapiens; for viability at 100 µM: read-out: cell viability at the highest concentration
Description: (§1) HepG2 liver cancer cells and THLE2 normal liver cells were bought from the National Research Institute in Egypt and cultured in “RPMI-1640” media containing L-Glutamine (Lonza Verviers SPRL, Belgium, cat#12-604F). Fetal bovine serum (Sigma-Aldrich, MO, USA) and penicillin–streptomycin at a concentration of 10% and 1%, respectively, were added to both cell lines (Lonza, Belgium). All cells were incubated following routine tissue culture work. Cells were treated with the compounds at (0.01, 0.1, 1, 10, and 100 µM) concentrations. Cell viability was assessed after 48 h using MTT solution (Promega, USA). Finally, Absorbance was subsequently measured (at 570 nm) using ELISA microplate reader (BIO-RAD, model iMark, Japan). The percentage of cell viability was calculated, and IC50 values were recorded using the GraphPad prism 7, as previously reported in the literature.

[2] = system: THLE2 normal liver cells; test: MTT cytotoxicity assay against THLE2 cells; assay type: cell-based; conditions: for IC50: Homo sapiens, THLE-2, MTT assay, 48 h, n = 3, read-out: IC50 ± SD THLE2
Description: as §1

[3] = target: T1, HER2 kinase (Homo sapiens, UniProt P04626); test: HER2 kinase inhibitory assay (BPS Bioscience kit); assay type: biochemical; conditions: average of three replicates, five concentrations
T1 construct: purchased BPS Bioscience 40721
Description: (§2) The autophosphorylation percentage inhibition of compounds was calculated by: 100-[Acontrol/Atreated-Control)] .

[4] = target: T2, EGFR kinase (Homo sapiens, UniProt P00533); test: EGFR kinase inhibitory assay (BPS Bioscience kit); assay type: biochemical; conditions: average of three replicates, five concentrations
T2 construct: purchased BPS Bioscience 40321
Description: as §2

[5] = system: P53; test: RT-PCR gene expression of P53; assay type: cell-based; conditions: HepG2, treated at IC50, 48 h, normalised to β-actin, control = 1
Description: (§3) Genes of P53, Bax, and Caspases-3,8,9 were screened as proapoptotic genes, while Bcl-2 was screened as antiapoptotic, therefore, we measured their gene expression to investigate the apoptotic process. […] After treatment, RT-PCR reaction was carried out following routine work. The Ct values were then used to determine the fold change in gene expression between samples after normalization to the β-actin reference gene.

[6] = system: caspase-3; test: RT-PCR gene expression of caspase-3; assay type: cell-based; conditions: HepG2, treated at IC50, 48 h, normalised to β-actin, control = 1
Description: as §3

[7] = system: caspase-8; test: RT-PCR gene expression of caspase-8; assay type: cell-based; conditions: HepG2, treated at IC50, 48 h, normalised to β-actin, control = 1
Description: as §3

[8] = system: Bcl-2; test: RT-PCR gene expression of Bcl-2; assay type: cell-based; conditions: HepG2, treated at IC50, 48 h, normalised to β-actin, control = 1
Description: as §3

[9] = system: HepG2 cells; test: Cell cycle analysis by DNA flow cytometry; assay type: cell-based; conditions: HepG2, treated at IC50, 48 h
[10] = system: Bax; test: RT-PCR gene expression of Bax; assay type: cell-based; conditions: HepG2, treated at IC50, 48 h, normalised to β-actin, control = 1
Description: as §3

[11] = system: HepG2 cells; test: Annexin V/PI staining, flow cytometry; assay type: cell-based; conditions: HepG2, treated at IC50, 48 h
Description: Overnight, 6-well culture plates were stocked with HepG2 cells (3–5 × 10^5 cells/well). […] After that, the cells and the medium supernatants were separated and washed with ice-cold PBS. The next step was suspending the cells in 100 µL of annexin binding buffer solution "25 mM CaCl2, 1.4 M NaCl, and 0.1 M Hepes/NaOH, pH 7.4″ and incubation with “Annexin V-FITC solution (1:100) and propidium iodide (PI)” at a concentration equals 10 µg/mL in the dark for 30 min. After the cells were stained, they were gathered by Cytoflex FACS equipment. We used cytExpert to examine the data.

[12] = system: caspase-9; test: RT-PCR gene expression of caspase-9; assay type: cell-based; conditions: HepG2, treated at IC50, 48 h, normalised to β-actin, control = 1
Description: as §3

[13] = HepG2 cells, MTT assay, 48 h, n = 3, read-out: IC50 ± SD HepG2
[14] = HepG2, dose-response curve fit in Fig. 5
[15] = HepG2, dose-response curve fit in Fig. 5, read-out: IC50 (unit inferred)

T2 sequence (P00533 25-1210): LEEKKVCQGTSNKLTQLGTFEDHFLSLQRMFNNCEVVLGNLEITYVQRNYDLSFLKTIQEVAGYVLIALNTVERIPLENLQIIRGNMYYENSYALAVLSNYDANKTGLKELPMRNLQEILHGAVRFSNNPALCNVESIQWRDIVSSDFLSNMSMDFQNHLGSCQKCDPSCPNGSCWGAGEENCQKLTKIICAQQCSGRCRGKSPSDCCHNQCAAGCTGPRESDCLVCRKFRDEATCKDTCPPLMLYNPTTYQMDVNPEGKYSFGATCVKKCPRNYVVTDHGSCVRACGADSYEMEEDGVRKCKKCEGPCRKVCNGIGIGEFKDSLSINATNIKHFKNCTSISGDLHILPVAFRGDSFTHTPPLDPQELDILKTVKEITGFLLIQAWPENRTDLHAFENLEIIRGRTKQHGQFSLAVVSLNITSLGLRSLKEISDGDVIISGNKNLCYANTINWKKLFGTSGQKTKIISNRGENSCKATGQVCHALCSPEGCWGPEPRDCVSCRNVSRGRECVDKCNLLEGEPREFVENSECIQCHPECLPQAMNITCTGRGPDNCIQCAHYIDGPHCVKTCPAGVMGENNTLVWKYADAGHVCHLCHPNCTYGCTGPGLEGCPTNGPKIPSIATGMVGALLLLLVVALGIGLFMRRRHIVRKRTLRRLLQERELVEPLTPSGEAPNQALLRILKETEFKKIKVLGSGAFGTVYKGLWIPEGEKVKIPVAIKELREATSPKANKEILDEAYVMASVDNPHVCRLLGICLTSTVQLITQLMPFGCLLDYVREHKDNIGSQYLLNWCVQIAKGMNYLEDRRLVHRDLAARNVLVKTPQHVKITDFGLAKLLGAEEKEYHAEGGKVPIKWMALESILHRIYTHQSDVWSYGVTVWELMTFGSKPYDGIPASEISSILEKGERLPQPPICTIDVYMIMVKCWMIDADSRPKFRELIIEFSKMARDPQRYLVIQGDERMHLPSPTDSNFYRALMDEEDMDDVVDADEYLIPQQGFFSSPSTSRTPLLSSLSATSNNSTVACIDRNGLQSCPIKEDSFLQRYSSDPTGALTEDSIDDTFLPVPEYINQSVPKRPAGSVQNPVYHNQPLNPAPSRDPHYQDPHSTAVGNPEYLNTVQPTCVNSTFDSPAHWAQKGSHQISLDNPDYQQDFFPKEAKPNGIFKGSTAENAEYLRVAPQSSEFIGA
T1 sequence (P04626 23-1255): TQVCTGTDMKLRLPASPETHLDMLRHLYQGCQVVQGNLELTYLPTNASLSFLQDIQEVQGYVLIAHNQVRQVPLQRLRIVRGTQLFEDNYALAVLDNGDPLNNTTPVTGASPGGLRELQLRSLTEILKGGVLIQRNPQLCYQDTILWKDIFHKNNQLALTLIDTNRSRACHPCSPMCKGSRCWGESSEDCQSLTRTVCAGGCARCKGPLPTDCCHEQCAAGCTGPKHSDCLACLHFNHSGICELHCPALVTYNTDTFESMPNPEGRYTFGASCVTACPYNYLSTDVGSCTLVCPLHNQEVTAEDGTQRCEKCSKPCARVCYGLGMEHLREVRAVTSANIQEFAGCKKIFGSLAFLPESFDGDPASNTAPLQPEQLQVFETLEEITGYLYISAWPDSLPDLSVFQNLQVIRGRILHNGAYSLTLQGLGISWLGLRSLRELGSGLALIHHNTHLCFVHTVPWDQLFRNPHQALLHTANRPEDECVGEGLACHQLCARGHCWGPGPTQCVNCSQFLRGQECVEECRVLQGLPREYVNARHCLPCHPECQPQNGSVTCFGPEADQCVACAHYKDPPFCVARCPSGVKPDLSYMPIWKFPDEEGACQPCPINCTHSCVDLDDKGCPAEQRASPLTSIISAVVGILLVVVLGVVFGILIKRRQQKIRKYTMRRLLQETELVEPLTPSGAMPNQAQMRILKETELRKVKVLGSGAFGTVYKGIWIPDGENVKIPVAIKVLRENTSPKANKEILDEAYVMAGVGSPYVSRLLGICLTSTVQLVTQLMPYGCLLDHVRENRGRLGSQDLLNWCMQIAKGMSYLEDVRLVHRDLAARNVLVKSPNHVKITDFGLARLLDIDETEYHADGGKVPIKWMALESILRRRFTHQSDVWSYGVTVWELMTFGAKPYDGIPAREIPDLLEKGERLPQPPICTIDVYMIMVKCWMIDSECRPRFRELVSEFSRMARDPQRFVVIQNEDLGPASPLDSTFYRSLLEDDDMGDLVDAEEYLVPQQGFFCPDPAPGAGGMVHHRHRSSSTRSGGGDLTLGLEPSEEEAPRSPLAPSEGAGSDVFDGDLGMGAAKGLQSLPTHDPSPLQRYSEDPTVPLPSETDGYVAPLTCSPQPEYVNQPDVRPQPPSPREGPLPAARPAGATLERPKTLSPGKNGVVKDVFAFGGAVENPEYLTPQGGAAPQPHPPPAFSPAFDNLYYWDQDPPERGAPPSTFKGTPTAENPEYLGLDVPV

SMILES	melting point [°C]	IC50 [1, 13] [µM]	IC50 [2] [µM]	further results
CC(=NNc1nc(-c2nn(-c3ccccc3)cc2C(=O)c2ccc3ccccc3c2)cs1)c1cc2ccccc2o1 [Compound 12, 2-(2-(1-(Benzofuran-2-yl)ethylidene)hydrazinyl)-4-(4-(2-naphthoyl)-1-phenylpyrazol-3-yl)thiazole]	164 to 166	5.48 ± 0.66	≥ 50	–
CC(=NNc1nc(-c2nn(-c3ccccc3)cc2C(=O)c2ccc3ccccc3c2)cs1)c1cc2ccccc2oc1=O [Compound 14, 2-(2-(1-(Coumarin-3-yl)ethylidene)hydrazinyl)-4-(4-(2-naphthoyl)-1-phenylpyrazol-3-yl)-thiazole]	239 to 241	4.36 ± 0.38	39.5 ± 1.74	–
O=C(c1ccc2ccccc2c1)c1cn(-c2ccccc2)nc1C(=O)CBr [Compound 6, 3-Bromoacetyl-4-(2-naphthoyl)-1-phenyl-1H-pyrazole]	–	16.3 ± 0.29	34.5 ± 1.26	–
COc1ccc(C=NNc2nc(-c3nn(-c4ccccc4)cc3C(=O)c3ccc4ccccc4c3)cs2)cc1 [Compound 8c, 2-(4-Methoxybenzylidenehydrazinyl)-4-(4-(2-naphthoyl)-1-phenyl-pyrazol-3-yl)thiazole]	–	7.39 ± 0.29	≥ 50	–
CS(=O)(=O)CCNCc1ccc(-c2ccc3ncnc(Nc4ccc(OCc5cccc(F)c5)c(Cl)c4)c3c2)o1 [Lapatinib, reference compound]	–	7.45 ± 0.32	≥ 50	–
CC(=NNc1nc(-c2nn(-c3ccccc3)cc2C(=O)c2ccc3ccccc3c2)cs1)c1nc2ccccc2s1 [Compound 13, 2-(2-(1-(Benzothiazol-2-yl)ethylidene)hydrazinyl)-4-(4-(2-naphthoyl)-1-phenylpyrazol-3-yl)-thiazole]	143 to 145	5.16 ± 0.29	≥ 50	–
O=C(c1ccc2ccccc2c1)c1cn(-c2ccccc2)nc1-c1csc(N/N=C/c2ccc(OCCCCOc3ccc(/C=N/Nc4nc(-c5nn(-c6ccccc6)cc5C(=O)c5ccc6ccccc6c5)cs4)cc3)cc2)n1 [Compound 18c, 1,4-Bis(4-((2-(4-((2-naphthoyl)-1-phenyl-1H-pyrazol-3-yl)thiazol-2-yl)hydrazono)methyl)-phenoxy)butane]	–	0.97 ± 0.09	≥ 50	P53 gene expression fold change [5]: 8.6 fold; LogIC50 [1, 14]: -0.01146; enhancement in anti-cancer potency on doubling the pharmacophoric scaffold ([1]; HepG2 IC50 of 18c vs. 8c): about eightfold; IC50 [1, 15]: 0.974 µM; viability at 100 µM ([1]; HepG2 cells): 5%; caspase-3 gene expression fold change [6]: 9 fold; cytotoxicity against THLE2 cells (in words) [2]: safe (non-cytotoxic); caspase-8 gene expression fold change [7]: 2.3 fold; Bcl-2 gene expression fold change [8]: 0.34 fold; cell cycle phase at which proliferation is arrested [9]: S-phase; cell population at S-phase ([9]; control 37.8%): 50.5%; IC50 [3]: 9.85 nM; Bax gene expression fold change [10]: 8.9 fold; increase of death rate (apoptotic cell death) ([11]; vs. untreated control): 63.6 fold; late apoptosis ([11]; AV+/PI+): 26.07%; early apoptosis ([11]; AV+/PI-): 15.28%; total apoptosis ([11]; untreated control 0.65%): 41.35%; caspase-9 gene expression fold change [12]: 7.6 fold; IC50 [4]: 4.98 nM
Cc1ccc(C=NNc2nc(-c3nn(-c4ccccc4)cc3C(=O)c3ccc4ccccc4c3)cs2)cc1 [Compound 8b, 2-(4-Methylbenzylidenehydrazinyl)-4-(4-(2-naphthoyl)-1-phenylpyrazol-3-yl)thiazole]	–	8.16 ± 0.34	41.6 ± 1.86	–

The next lines start with results.

melting point [°C]	SMILES	IC50 [1, 13] [µM]	IC50 [2] [µM]	further results
231 to 233	O=C(c1ccc2ccccc2c1)c1cn(-c2ccccc2)nc1-c1csc(NN=Cc2ccc([N+](=O)[O-])cc2)n1 [Compound 8d, 2-(4-Nitrobenzylidenehydrazinyl)-4-(4-(2-naphthoyl)-1-phenyl-pyrazol-3-yl)thiazole]	11.3 ± 0.34	≥ 50	–
230 to 232	O=C(c1ccc2ccccc2c1)c1cn(-c2ccccc2)nc1-c1csc(N/N=C\c2ccccc2OCCCCOc2ccccc2/C=N\Nc2nc(-c3nn(-c4ccccc4)cc3C(=O)c3ccc4ccccc4c3)cs2)n1 [Compound 21c, 1,4-Bis(2-((2-(4-((2-naphthoyl)-1-phenyl-1H-pyrazol-3-yl)thiazol-2-yl)hydrazono)methyl)-phenoxy)butane]	4.12 ± 0.19	45.6 ± 1.87	–
166 to 168	O=C(c1ccc2ccccc2c1)c1cn(-c2ccccc2)nc1-c1csc(N/N=C\c2ccccc2OCCOc2ccccc2/C=N\Nc2nc(-c3nn(-c4ccccc4)cc3C(=O)c3ccc4ccccc4c3)cs2)n1 [Compound 21a, 1,2-Bis(2-((2-(4-((2-naphthoyl)-1-phenyl-1H-pyrazol-3-yl)thiazol-2-yl)hydrazono)methyl)-phenoxy)ethane]	3.26 ± 0.14	≥ 50	LogIC50 [1, 14]: 0.514; IC50 [1, 15]: 3.27 µM; viability at 100 µM ([1]; HepG2 cells): 13%; cytotoxicity against THLE2 cells (in words) [2]: safe (non-cytotoxic); IC50 [3]: 14.2 nM; IC50 [4]: 5.8 nM
187 to 189	O=C(c1ccc2ccccc2c1)c1cn(-c2ccccc2)nc1-c1csc(N/N=C/c2ccc(OCCOc3ccc(/C=N/Nc4nc(-c5nn(-c6ccccc6)cc5C(=O)c5ccc6ccccc6c5)cs4)cc3)cc2)n1 [Compound 18a, 1,2-Bis(4-((2-(4-((2-naphthoyl)-1-phenyl-1H-pyrazol-3-yl)thiazol-2-yl)hydrazono)methyl)-phenoxy)ethane]	8.34 ± 0.48	39.8 ± 1.59	–
138 to 140	O=C(c1ccc2ccccc2c1)c1cn(-c2ccccc2)nc1-c1csc(NN=Cc2ccccc2)n1 [Compound 8a, 2-(Benzylidenehydrazinyl)-4-(4-(2-naphthoyl)-1-phenyl-pyrazol-3-yl)thiazole]	8.64 ± 0.29	46.2 ± 2.01	–
200 to 202	O=C(c1ccc2ccccc2c1)c1cn(-c2ccccc2)nc1-c1csc(N/N=C/c2ccc(OCCCOc3ccc(/C=N/Nc4nc(-c5nn(-c6ccccc6)cc5C(=O)c5ccc6ccccc6c5)cs4)cc3)cc2)n1 [Compound 18b, 1,3-Bis(4-((2-(4-((2-naphthoyl)-1-phenyl-1H-pyrazol-3-yl)thiazol-2-yl)hydrazono)methyl)-phenoxy)propane]	3.57 ± 0.67	≥ 50	LogIC50 [1, 14]: 0.5536; IC50 [1, 15]: 3.58 µM; viability at 100 µM ([1]; HepG2 cells): 9%; cytotoxicity against THLE2 cells (in words) [2]: safe (non-cytotoxic); IC50 [3]: 16.3 nM; IC50 [4]: 7.04 nM
209 to 211	O=C(c1ccc2ccccc2c1)c1cn(-c2ccccc2)nc1-c1csc(N/N=C\c2ccccc2OCCCOc2ccccc2/C=N\Nc2nc(-c3nn(-c4ccccc4)cc3C(=O)c3ccc4ccccc4c3)cs2)n1 [Compound 21b, 1,3-Bis(2-((2-(4-((2-naphthoyl)-1-phenyl-1H-pyrazol-3-yl)thiazol-2-yl)hydrazono)methyl)-phenoxy)propane]	9.36 ± 0.47	49.4 ± 2.1	–
